# According to patent US20220153734A1, “Pyrazolopyridine Compounds For IRE1 Inhibition” (Optikira, LLC, priority 2019, published 2022):
# pIC50: −log10 of the molar value.
# Assays:
# [1] = tested on: ARPE-19 cells stably expressing XBP1 (a.a. 1-376); test: Cellular XBP1 splicing assay (NanoLuc luciferase, thapsigargin); type: cell-based; settings: Homo sapiens, ARPE-19, 4 h, thapsigargin 150 nM
# Method in brief: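 ARPE-19 cells carrying an XBP1(1-376)-NanoLuc splicing reporter were pretreated with compound (10-point ½-log series, 0.117% DMSO) for 30 min, then stressed with 150 nM thapsigargin for 4 h at 37° C. Luminescence was read, and IC50 values came from sigmoidal fits of percent inhibition of control.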
# IRE1α [2] = target: T1, IRE1α (Homo sapiens, UniProt O75460); test: Biochemical assay to detect inhibition of kinase activity of IRE1α (ADP-Glo)
# T1 construct: purchased Signal Chem E31-11G
# Experimental: Biochemical Assays to Detect Inhibition of Kinase Activity of IRE1α
# The kinase reactions were performed in 384 well white ProxiPlate-384 Plus plates (PERKIN Elmer 6008280) using 25 mM MOPS assay buffer with 1 mM dithiothreitol, 25 mM MgCl2, 12.5 mM β-glycerophosphate, 5 mM EGTA, and 50 μg/mL BSA. Test compounds were prepared on the day of assay and dispensed using D300 digital dispenser as a 10-point ½ log dilution series in duplicate, normalized to a final DMSO concentration of 3%. Test compounds were pre-incubated for 30 min at room temperature with 10 nM IRE1α kinase (E31-11G from Signal Chem) in 2.5 μL of assay buffer and the reaction started by addition of 2.5 μL of ATP in assay buffer, to give a final ATP concentration of 100 μM and 5 nM IRE1α kinase. After 4 hours incubation at room temperature the reactions were stopped and the kinase activity determined using the ADP-Glo™ reagent from Promega, according to the manufacturer's instructions. Luminescence was measured on a luminometer (EnVision, PerkinElmer) and IC50 values calculated by fitting a sigmoidal curve to percent inhibition of control versus Log10 of compound concentration.
# IRE1α [3] = target: T1, IRE1α; test: Biochemical assay: inhibition of RNase activity of IRE1α; settings: enzyme 0.325 nM, substrate 100 nM, 20 minutes
# Method in brief: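 RNase cleavage monitored as dequenching of a 5′ Alexa Fluor 647/3′ quencher RNA oligo (100 nM), stopped with 5 M urea after 20 min at room temperature. Enzyme 0.325 nM, preceded by 30 min compound pre-incubation; buffer Tris/MgCl2/KCl/DTT/Tween, 4% DMSO final. IC50 from curve fit of % inhibition.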
# T1 sequence (O75460 468-977 limits assumed): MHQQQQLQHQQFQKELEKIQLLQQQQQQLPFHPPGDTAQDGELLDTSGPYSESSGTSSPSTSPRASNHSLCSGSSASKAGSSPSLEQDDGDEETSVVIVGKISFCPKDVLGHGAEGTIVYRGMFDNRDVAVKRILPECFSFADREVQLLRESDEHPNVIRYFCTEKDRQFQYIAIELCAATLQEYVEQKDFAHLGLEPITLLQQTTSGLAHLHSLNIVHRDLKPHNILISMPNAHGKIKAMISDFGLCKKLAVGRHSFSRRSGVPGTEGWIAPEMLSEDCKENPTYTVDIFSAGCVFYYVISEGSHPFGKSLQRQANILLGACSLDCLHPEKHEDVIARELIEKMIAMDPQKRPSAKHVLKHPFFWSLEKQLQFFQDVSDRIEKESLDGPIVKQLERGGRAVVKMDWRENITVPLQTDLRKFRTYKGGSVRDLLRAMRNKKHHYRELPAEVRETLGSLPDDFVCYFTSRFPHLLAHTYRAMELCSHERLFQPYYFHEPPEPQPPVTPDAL
pIC50 [1],pIC50 (IRE1α [2]),pIC50 (IRE1α [3]),Structure (SMILES)
7.51,8.55,8.09,"CCn1nc(-c2cc(F)c(NS(=O)(=O)c3ccccc3Cl)cc2F)c2c(N)ncc([C@H]3CC[C@H](NC4COC4)CC3)c21 [Compound A44, N-(4-(4-amino-1-ethyl-7-((1r,4r)-4-(oxetan-3-ylamino)cyclohexyl)-1H-pyrazolo[4,3-c]pyridin-3-yl)-2,5-difluorophenyl)-2-chlorobenzenesulfonamide]"
7.03,8.19,7.80,"CCn1nc(-c2cc(F)c(NS(=O)(=O)c3ccccc3F)cc2F)c2c(N)ncc([C@H]3CC[C@H](NC4COC4)CC3)c21 [Compound A45, N-(4-(4-amino-1-ethyl-7-((1r,4r)-4-(oxetan-3-ylamino)cyclohexyl)-1H-pyrazolo[4,3-c]pyridin-3-yl)-2,5-difluorophenyl)-2-fluorobenzenesulfonamide]"
8.08,8.44,8.11,CC(C)n1nc(-c2ccc(NS(=O)(=O)c3ccccc3F)c(F)c2)c2c(N)ncc([C@H]3CC[C@H](N(C)C4COC4)CC3)c21 [Compound A46]
8.25,8.70,8.89,"CC(C)n1nc(-c2cc(F)c(NS(=O)(=O)Cc3ccccc3Cl)cc2F)c2c(N)ncc([C@H]3CC[C@H](NC4COC4)CC3)c21 [Compound A47, N-(4-(4-amino-1-isopropyl-7-((1r,4r)-4-(oxetan-3-ylamino)cyclohexyl)-1H-pyrazolo[4,3-c]pyridin-3-yl)-2,5-difluorophenyl)-1-(2-chlorophenyl)methanesulfonamide]"
8.19,8.80,8.72,"CC(C)n1nc(-c2cc(F)c(NS(=O)(=O)Cc3ccccc3F)cc2F)c2c(N)ncc([C@H]3CC[C@H](NC4COC4)CC3)c21 [Compound A48, N-(4-(4-amino-1-isopropyl-7-((1r,4r)-4-(oxetan-3-ylamino)cyclohexyl)-1H-pyrazolo[4,3-c]pyridin-3-yl)-2,5-difluorophenyl)-1-(2-fluorophenyl)methanesulfonamide]"
8.37,8.68,8.22,"CC(C)n1nc(-c2cc(F)c(NS(=O)(=O)c3ccccc3Cl)cc2F)c2c(N)ncc([C@H]3CC[C@H](NC4COC4)CC3)c21 [Compound A49, N-(4-(4-amino-1-isopropyl-7-((1r,4r)-4-(oxetan-3-ylamino)cyclohexyl)-1H-pyrazolo[4,3-c]pyridin-3-yl)-2,5-difluorophenyl)-2-chlorobenzenesulfonamide]"
7.77,8.48,8.16,"CC(C)n1nc(-c2cc(F)c(NS(=O)(=O)c3ccccc3F)cc2F)c2c(N)ncc([C@H]3CC[C@H](NC4COC4)CC3)c21 [Compound A50, N-(4-(4-amino-1-isopropyl-7-((1r,4r)-4-(oxetan-3-ylamino)cyclohexyl)-1H-pyrazolo[4,3-c]pyridin-3-yl)-2,5-difluorophenyl)-2-fluorobenzenesulfonamide]"
8.70,8.57,9.30,"CC(C)n1nc(-c2ccc(NS(=O)(=O)Cc3ccccc3Cl)c(F)c2)c2c(N)ncc([C@H]3CC[C@H](N(C)C)CC3)c21 [Compound A51, N-(4-(4-amino-7-((1r,4r)-4-(dimethylamino)cyclohexyl)-1-isopropyl-1H-pyrazolo[4,3-c]pyridin-3-yl)-2-difluorophenyl)-1-(2-chlorophenyl)methanesulfonamide]"
7.82,8.34,8.21,"CCn1nc(-c2ccc(NS(=O)(=O)c3ccccc3Cl)c(F)c2)c2c(N)ncc([C@H]3CC[C@H](NC4COC4)CC3)c21 [Compound A52, N-(4-(4-amino-1-ethyl-7-((1r,4r)-4-(oxetan-3-ylamino)cyclohexyl)-1H-pyrazolo[4,3-c]pyridin-3-yl)-2-fluorophenyl)-2-chlorobenzenesulfonamide]"
8.04,8.72,8.82,"CCn1nc(-c2ccc(NS(=O)(=O)Cc3ccccc3F)c(F)c2)c2c(N)ncc([C@H]3CC[C@H](NC4COC4)CC3)c21 [Compound A53, N-(4-(4-amino-1-ethyl-7-((1r,4r)-4-(oxetan-3-ylamino)cyclohexyl)-1H-pyrazolo[4,3-c]pyridin-3-yl)-2-fluorophenyl)-1-(2-fluorophenyl)methanesulfonamide]"
8.60,9.05,9.40,"CC(C)n1nc(-c2ccc(NS(=O)(=O)Cc3ccccc3F)c(F)c2)c2c(N)ncc([C@H]3CC[C@H](NC4COC4)CC3)c21 [Compound A57, N-(4-(4-amino-1-isopropyl-7-((1r,4r)-4-(oxetan-3-ylamino)cyclohexyl)-1H-pyrazolo[4,3-c]pyridin-3-yl)-2-fluorophenyl)-1-(2-fluorophenyl)methanesulfonamide]"
